Values of other authors, collected in PMC10089180 (Proceedings of the National Academy of Sciences of the …, 2023).

Legend:
[1] = test system: FPR1; settings: tripeptide; ref [26], [27]
[2] = target: FPR1; settings: ref [38]
[3] = no reference given
[4] = test system: chemerin receptor; settings: Y1 missing or substituted by alanine; ref [17]
[5] = ref [15], [16]

fMLF
agonistic activity at FPR1 [1]: full agonistic activity
dissociation constant [2]: low nanomolar range

Asp-Arg-Val-Tyr-Ile-His-Pro-Phe [AngII]
chemotactic activity [3]: does not display chemotactic activity

Y1 missing: C9 when Y1 was missing (FPGQFAFS; UniProt Q99969 150-157, looked up, fragment)
reduced activity in functional assays [4]: ~ 30%

B1: prochemerin (21-163): Removal of the N-terminal signal peptide results in prochemerin (21-163) (protein, UniProt Q99969 21-163, looked up)
pro-form: ELTEAQRRGLQVALEEFHKHPPVQWAFQETSVESAVDTPFPAGIFVRLEFKLQQTSCRKRDWKKPECKVRPNGRKRKCLACIKLGSEDKVLGRLVHCPIETQVLREAEEHQETQCLRVQRAGEDPHSFYFPGQFAFSKALPRS
modifications: pro-form
chemotactic activity / bioactivity of chemerin form [5]: low bioactivity

B2: Pre-prochemerin: 163-amino acid protein without chemotactic activity (protein, UniProt Q99969 1-163, looked up)
chain: MRRLLIPLALWLGAVGVGVAELTEAQRRGLQVALEEFHKHPPVQWAFQETSVESAVDTPFPAGIFVRLEFKLQQTSCRKRDWKKPECKVRPNGRKRKCLACIKLGSEDKVLGRLVHCPIETQVLREAEEHQETQCLRVQRAGEDPHSFYFPGQFAFSKALPRS
modifications: full-length
chemotactic activity / bioactivity of chemerin form [5]: without chemotactic activity
